Data published in publication PMC9343874, “Comparative Pharmacokinetics of Cinobufacini Capsule and Injection by UPLC-MS/MS” (Frontiers in Pharmacology, 2022).
Where two headings read alike, the source gives them in different places.

How the values were obtained:
[1] = Pharmacokinetic study in rats after intravenous administration of cinobufacini injection (UPLC-MS/MS of plasma); format: in vivo, rat; details: for concentrations in most rat plasma samples relative to LLOQ: after intravenous administration of cinobufacini injection, pharmacokinetic parameters could not be calculated; for detection in rat plasma: cinobufacini injection group, intravenous
Experimental: Male Sprague–Dawley rats (weighing 200–220 g) of SPF grade were offered by Sippr/BK laboratory Animal, Corp., Ltd. (Shanghai, China) and fed in the Laboratory Animal Center of the Shanghai University of Traditional Chinese Medicine. All the rats were kept under environmentally controlled conditions with constant temperature (22–24°C) and humidity (60–65%). The animal experiment program in the present research was approved by the Animal Committee of the Shanghai University of Traditional Chinese Medicine (PZSHUTCM210618012).
An Agilent 1290 liquid chromatographic system includes a G4220A quaternary pump, a G1326C column incubator, a G4226A automatic sampler, and a G1330B degasser. The column temperature was set to 35°C. A measure of 5 µL of samples were separated in an Agilent SB-C18 column (2.1 mm ×50 mm, 1.8 μm) and eluted at 0.3 ml/min, followed by gradient elution with water (0.1% V/V formic acid) (A) and acetonitrile (B) (0–1 min, 20%–20% B; 1–3.5 min, 20%–80% B; 4–4.1 min, 80%-20% B; 4.1–6 min, 20% B). The total run time was 6 minutes.
An Agilent 1290 Infinity series UPLC system was combined with an Agilent 6460 series triple quadrupole mass spectrometer (Agilent Technologies, Santa Clara, CA, United States) to quantify all 13 analytes in an ESI-positive ionization mode. Quantitative analysis was performed in an MRM mode. The mass spectrum conditions were as follows: capillary voltage, 4000V; drying gas (N2), gas flow rate: 10 L/min; sprayer, 30 psi; gas temperature 350°C; The delta EMV (+) 200 V; collision gas (N2); dwell time, 25 ms. Agilent’s MassHunter Workstation software was used for data collection, peak area calculation, and quantitative analysis.
A measure of 50 µL of the plasma sample was mixed with 10 µL of the internal standard solution (345 ng/ml) in a 1.5-ml centrifuge tube and vortexed for 5 min. The samples were extracted by 500 µL of ethyl acetate for 5 min and centrifuged at 4°C for 10 min (18000 rpm). All the supernatants were collected into another 1.5-ml centrifuge tube, dried under a gentle stream of nitrogen at 37°C, and then added with 50 µL of 80% methanol for resolution. The resolution samples were centrifuged at 4°C for 10 min (18000 rpm), and 5 µL supernatant was extracted and injected for analysis.
Twenty-four male Sprague–Dawley rats (weigh 200–220 g) were divided into four groups with six rats in each group randomly, including three capsule groups at three different doses and one injection group. In the instructions for cinobufacini capsule and injection, the clinical dosage for adults is 2 g per 70 kg orally and 20 ml per 70 kg intravenously, converting to rat doses of 180 mg/kg and 1.8 ml/kg, respectively.
In the pre-experiments, we compared cinobufacini capsule of 180 mg/kg (one-time clinical dose) and 900 mg/kg (five times of clinical dose) and Cinobufacini injection of 1.8 ml/kg, but concentrations of some compounds in plasma were too low and difficult to be quantified. […] The experimental rats were led to fast the night and were free to get access to water for 12 h before the pharmacokinetic study. After administration, blood samples (approximately 150 μL) of rats were collected via retro-orbital sinus into heparinized centrifuge tubes at 0.05, 0.083, 0.25, 0.5, 0.75, 1, 2, 4, 6, 8, and 10 h. After centrifugation at 5,000 rpm for 10 min, the plasma was transferred to 1.5-ml polypropylene tubes and stored at −80°C until UPLC-MS/MS analysis.
GraphPad Prism software (version 8.0.2) was used to draw the mean plasma concentration–time curves of all analytes. The pharmacokinetic parameters were calculated by DAS 3.2.8 software. Meanwhile, the pharmacokinetic data on rats were presented as mean ± standard deviation (SD). Differences of pharmacokinetic parameters between groups were analyzed by the t-test using SPSS software (version 26.0). Differences were considered significant statistically when the p-values were <0.05 and very significant statistically when the p-values were <0.01.

[2] = Stability of analytes in rat plasma QC samples under storage conditions; format: physicochemical; details: n = 6; for Stability during 24 h at 4°C, RE: post-treatment storage in autosampler; for −80°C for 30 days, RE / Three freeze–thaw cycles, RE: rat plasma; for −80°C for 30 days, RE: long-term; for Three freeze–thaw cycles, RE: −80°C to room temperature
How it was run: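 QC samples at low, medium and high levels (n=6) were tested after 24 h in the autosampler at 4 °C, after three freeze–thaw cycles from −80 °C to room temperature, and after 30 days at −80 °C. Concentrations were read from daily calibration curves. Stability was accepted when RE and RSD were within ±15% of nominal.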

[3] = Pharmacokinetic study in rats after oral administration of cinobufacini capsule (UPLC-MS/MS of plasma); format: in vivo, rat; details: for AUC(0-inf) / AUC(0-t) / Cmax / Tmax / CL/F / MRT last / MRT inf / half-life / Vd/F: male, Sprague-Dawley, in vivo, rat plasma, mean ± SD, n = 6; for CL/F: read-out: CLz/F (converted); for MRT last: read-out: MRT0-t; for MRT inf: read-out: MRT0-∞; for half-life: read-out: T1/2z (converted); for Vd/F: read-out: Vz/F
How it was run: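 Male SD rats (200–220 g), fasted 12 h, six per group; cinobufacini capsule given orally at three doses or injection intravenously. Retro-orbital plasma sampled 0.05–10 h, extracted with ethyl acetate plus internal standard, quantified by UPLC-MS/MS (ESI+, MRM); parameters calculated by non-compartmental-style software as mean ± SD.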

[4] = high QC level (249.58–250.28 ng/ml)
[5] = medium QC level (49.92–50.06 ng/ml)
[6] = oral cinobufacini capsule 0.9 g/kg (low)
[7] = oral cinobufacini capsule 1.8 g/kg (medium)
[8] = oral cinobufacini capsule 3.6 g/kg (high)

C[C@]12CC[C@H](O)C[C@H]1CC[C@@H]1[C@@H]2CC[C@]2(C)[C@@H](c3ccc(=O)oc3)CC[C@]12O [BF, bufalin]
concentrations in most rat plasma samples relative to LLOQ [1]: far below the LLOQs | detection in rat plasma [1]: could be detected | Stability during 24 h at 4°C, RE [2, 4]: −8.5% | Stability during 24 h at 4°C, RE ([2]; low QC level (4.99–5.00 ng/ml)): 3.3% | Stability during 24 h at 4°C, RE [2, 5]: −8.6% | −80°C for 30 days, RE [2, 4]: 1.4% | −80°C for 30 days, RE ([2]; low QC level (4.99–5.00 ng/ml)): 8.7% | −80°C for 30 days, RE [2, 5]: −12.6% | Three freeze–thaw cycles, RE [2, 4]: 0.8% | Three freeze–thaw cycles, RE ([2]; low QC level (4.99–5.00 ng/ml)): −7.7% | Three freeze–thaw cycles, RE [2, 5]: −10.1% | AUC(0-inf) [3, 6]: 143 ± 79.4 ng·h/mL | AUC(0-t) [3, 6]: 139 ± 71.9 ng·h/mL | Cmax [3, 6]: 74.7 ± 30.7 ng/mL | Tmax [3, 6]: 15 min | CL/F [3, 6]: 26.2 mL/min/kg | MRT last [3, 6]: 2.04 ± 0.62 h | MRT inf [3, 6]: 2.19 ± 0.9 h | half-life [3, 6]: 65.4 ± 54.6 min | Vd/F [3, 6]: 1.81 ± 0.56 L/kg | AUC(0-inf) [3, 7]: 317 ± 134 ng·h/mL | AUC(0-t) [3, 7]: 310 ± 131 ng·h/mL | Cmax [3, 7]: 189 ± 43.2 ng/mL | Tmax [3, 7]: 25.8 ± 7.2 min | CL/F [3, 7]: 21.5 mL/min/kg | MRT last [3, 7]: 1.45 ± 0.24 h | MRT inf [3, 7]: 1.59 ± 0.49 h | half-life [3, 7]: 72 ± 37.2 min | Vd/F [3, 7]: 2.15 ± 1.21 L/kg | AUC(0-inf) [3, 8]: 461 ± 90.4 ng·h/mL | AUC(0-t) [3, 8]: 457 ± 91.2 ng·h/mL | Cmax [3, 8]: 322 ± 55.5 ng/mL | Tmax [3, 8]: 27.6 ± 10.2 min | CL/F [3, 8]: 27.3 mL/min/kg | MRT last [3, 8]: 1.39 ± 0.43 h | MRT inf [3, 8]: 1.49 ± 0.55 h | half-life [3, 8]: 76.2 ± 43.2 min | Vd/F [3, 8]: 3.02 ± 2.01 L/kg | time to reach maximum plasma concentration (Cmax) ([3]; rats, after gavage administration of cinobufacini capsule): ≤ 60 min

C[C@]12CC[C@H](O)C[C@H]1CC[C@@H]1[C@@H]2C(=O)[C@@H](O)[C@]2(C)[C@@H](c3ccc(=O)oc3)CC[C@]12O [PBG, pseudobufarenogin]
concentrations in most rat plasma samples relative to LLOQ [1]: far below the LLOQs | detection in rat plasma [1]: could be detected | Stability during 24 h at 4°C, RE [2, 4]: 10.2% | Stability during 24 h at 4°C, RE ([2]; low QC level (4.99–5.00 ng/ml)): 6.6% | Stability during 24 h at 4°C, RE [2, 5]: 12.0% | −80°C for 30 days, RE [2, 4]: 4.7% | −80°C for 30 days, RE ([2]; low QC level (4.99–5.00 ng/ml)): 8.3% | −80°C for 30 days, RE [2, 5]: 7.5% | Three freeze–thaw cycles, RE [2, 4]: 7.7% | Three freeze–thaw cycles, RE ([2]; low QC level (4.99–5.00 ng/ml)): 4.4% | Three freeze–thaw cycles, RE [2, 5]: 13.3% | AUC(0-inf) [3, 6]: 13.8 ± 5.4 ng·h/mL | AUC(0-t) [3, 6]: 13.3 ± 4.42 ng·h/mL | Cmax [3, 6]: 9.3 ± 3.04 ng/mL | Tmax [3, 6]: 15 min | CL/F [3, 6]: 33.5 mL/min/kg | MRT last [3, 6]: 2.4 ± 0.63 h | MRT inf [3, 6]: 2.76 ± 1 h | half-life [3, 6]: 91.2 ± 58.8 min | Vd/F [3, 6]: 7.15 ± 2.16 L/kg | AUC(0-inf) [3, 7]: 28.6 ± 6.25 ng·h/mL | AUC(0-t) [3, 7]: 28.4 ± 6.26 ng·h/mL | Cmax [3, 7]: 24.5 ± 7.32 ng/mL | Tmax [3, 7]: 24 ± 13.2 min | CL/F [3, 7]: 30.8 mL/min/kg | MRT last [3, 7]: 1.49 ± 0.08 h | MRT inf [3, 7]: 1.54 ± 0.11 h | half-life [3, 7]: 61.8 ± 36.6 min | Vd/F [3, 7]: 2.65 ± 1.51 L/kg | AUC(0-inf) [3, 8]: 47.7 ± 9.78 ng·h/mL | AUC(0-t) [3, 8]: 47.3 ± 9.4 ng·h/mL | Cmax [3, 8]: 42.8 ± 10.2 ng/mL | Tmax [3, 8]: 19.2 ± 7.2 min | CL/F [3, 8]: 36.7 mL/min/kg | MRT last [3, 8]: 1.47 ± 0.39 h | MRT inf [3, 8]: 1.57 ± 0.39 h | half-life [3, 8]: 118 ± 40.2 min | Vd/F [3, 8]: 5.65 ± 1.61 L/kg
